Measured values taken from patent US20040086891A1, “Dehydrogenase oligomeric modulators” (priority 1998, published 2004).
“Also recorded” adds a separate entry of the source.

How the values were obtained:
[1] = system: partially differentiated PC12 cells or fibroblasts; experiment: Apoptosis and GAPDH nuclear translocation after NO donor treatment; type: cell-based
Excerpt: (§1) The subcellular localization of GAPDH in PC12 cells entering apoptosis using immunocytochemistry and LCSM has been studied.

GAPDH [2] = target: T1, GAPDH (Homo sapiens, UniProt P04406); experiment: Photoaffinity binding and BODIPY-labelled CGP3466 protein binding study; settings: photoaffinity binding techniques, BODIPY chromogen
T1 sequence (P04406 whole entry, species assumed): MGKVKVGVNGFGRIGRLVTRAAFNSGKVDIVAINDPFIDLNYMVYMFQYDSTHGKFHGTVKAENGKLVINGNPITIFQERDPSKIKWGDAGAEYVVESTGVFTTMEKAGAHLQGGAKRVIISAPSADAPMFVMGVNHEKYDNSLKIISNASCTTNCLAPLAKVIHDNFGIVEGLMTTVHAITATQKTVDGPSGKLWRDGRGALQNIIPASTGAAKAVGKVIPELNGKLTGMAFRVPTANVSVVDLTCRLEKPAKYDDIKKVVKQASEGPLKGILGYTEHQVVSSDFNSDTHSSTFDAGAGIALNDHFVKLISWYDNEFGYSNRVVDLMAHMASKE
Excerpt: It was also shown that there was an increase in GAPDH levels found in early apoptosis. Photoaffinity binding techniques and a BODIPY chromogen attached to dibenzo[bf]oxepin-10-ylmethyl-prop-2-ynyl-amine (CGP3466), were used to study the protein and subcellular binding of (−)-desmethyldeprenyl (DES) and CGP3466.

PC12 cells = experiment: Subcellular localization of GAPDH in PC12 cells entering apoptosis (immunocytochemistry, LCSM); type: cell-based; settings: early apoptosis, 3-12 hours after serum and NGF withdrawal
Excerpt: as §1

GAPDH [3] = experiment: GAPDH protein levels in early apoptosis after trophic withdrawal; type: cell-based; settings: increase begins 1.5 to 2.0 hours after trophic withdrawal
Excerpt: (§2) As well as the nuclear translocation, GAPDH levels increase rapidly in the early phases of apoptosis. […] At least three molecules associated with toxin-induced neuronal apoptosis—nitric oxide, superoxide radical and peroxynitrite—have the capacity to free GAPDH from AU-rich RNA (Beckman and Koppenol, 1996). Nitric oxide modifies the structure of GAPDH and appears to free it from AU-rich RNA (Brune and Lapetina, 1995; Brune and Lapetina, 1996; Itoga et al., 1997; McDonald and Moss, 1994). Oxygen free radicals enhance the binding of NAD^+ to GAPDH (Marin et al., 1995). If, in fact, GAPDH translocation to the nucleus does initiate or facilitate apoptosis, then ROS and NO may induce apoptosis through GAPDH.

GAPDH [4] = target: T1, GAPDH; experiment: Size exclusion chromatography of the oligomeric state of GAPDH; type: biochemical; settings: for oligomeric state of GAPDH bound to poly-U RNA: size exclusion chromatography, GAPDH largely tetrameric without compound; for oligomeric state of GAPDH in the presence of SDS: sodium dodecyl sulfate added, untreated protein becomes monomeric
Experimental: A dehydrogenase oligomeric modulator is identified using size exclusion chromatographic (SEC) techniques. A test compound is tested for its ability to prevent tetramer formation of GAPDH and compounds capable of preventing or inhibiting such formation are identified as DOMs. SEC is used to determine if potential compounds affect the oligomeric state of GAPDH (or any oligomeric protein) when contacted with GAPDH under conditions which promote oligomer formation. This method can be further refined and sped up (i.e., faster data collection) by using SEC-high performance liquid chromatographic (SEC-HPLC) methods. An example is set forth below.
A column was made using a disposable 1 cm diameter column (BIORAD). The chosen matrix for the column was Sephacryl H-300 (PHARMACIA). The column was poured by mixing the beads (SEPHACRYL) in a buffer and layering into the column until the bed was about 12 cm long. The buffer used was 50 mM TRIS—HCl, pH 8.0. The column was then washed with the same buffer for 10 column volumes.
A selection.of protein standards of known molecular weight was run through the column.
Once the column is calibrated, the molecular weight of the eluted fractions (in this case, GAPDH monomers, dimers and tetramers) may be determined.
Prior to moving the proteins to the column they are contacted with candidate compound and mixed at room temperature in, e.g., nanomolar concentrations under conditions known to those skilled in the art.
The mixture prepared above is then added to the column and eluted with 50 mM TRIS—HCl pH 8.0 buffer. 500 μl fractions of the eluent are collected. The optical density of the fractions is then determined, e.g., at 280 nm, and an elution profile prepared and analyzed to determine the extent of oligomerization.
GAPDH is a tetramer consisting of four identical monomers (FIG. 1). The tetramer exists in equilibrium between tetramers, dimers and monomers. This equilibrium strongly favors the tetrameric form. Upon tetramer formation, there is a channel present between the four monomers. […] As such, the ability of (−)-desmethyldeprenyl and CGP3466 to decrease GAPDH tetramer and increase GAPDH dimer in vitro identifies these compounds as oligomeric modulators of GAPDH.

GAPDH [5] = target: T1, GAPDH; experiment: Antibody blocking experiment for drug binding in the GAPDH channel; settings: protein first treated with antibody, then drug
Experimental: Antibody blocking experiments were conducted to confirm that CGP3466 bound GAPDH in the channel. In FIG. 2, GAPDH is shown in blue with the site for an antibody which was raised to a certain part of GAPDH is green.

GAPDH [6] = target: T1, GAPDH; settings: cited from earlier work
NG108-15 cells = settings: cited from earlier work
fibroblasts = experiment: GAPDH nuclear translocation in fibroblasts treated with NAD+; type: cell-based
GAPDH [7] = target: T1, GAPDH; experiment: Release of GAPDH from AU-rich RNA and glycolytic activity; type: biochemical
Excerpt: as §2

COS and Hek cells = experiment: GAPDH-GFP fusion protein localization in living COS and Hek cells (LCSM); type: cell-based; settings: first two hours after exposure
Excerpt: GAPDH cDNA was cloned from rat brain using oligonucleotides designed to the 5′- and 3′-ends of the coding region of rat GAPDH with PCR. The cDNA was used to produce a GAPDH-green fluorescent protein (GFP) construct by adding a 3′ oligo (Gly)s to the C-terminus of GAPDH followed by a BamHI site to allow subcloning, in frame, into pEGFP-1 (Clontech). The resulting construct contains GAPDH followed by (Gly)5 and enhanced GFP. The insert was subcloned into the Hindlil-Notl sites of pcDNA3. The GAPDH-GFP construct has been transiently transfected into COS1 cells and stably transfected into HEK 293 cells.
Apoptosis was induced in the living COS and Hek cells maintained in a physiological chamber on LCSM. […] These experiments established that GAPDH nuclear translocation occurs dynamically during the very early stages of apoptosis and indicate that GAPDLH participates in the initiation phase of apoptosis.

CC(=O)N[C@@H](C(=O)O)C(C)(C)SN=O (racemic) [SNAP]
induction of apoptosis [1]: induced apoptosis

C#CCNC(C)Cc1ccccc1 (single isomer, unassigned; (-)) [(−)-desmethyldeprenyl]
binding to GAPDH (GAPDH [2]): bind to GAPDH | nuclear translocation (relocation) of GAPDH (PC12 cells): prevent the nuclear relocation of GAPDH | nuclear translocation (relocation) of GAPDH (PC12 cells; listed as DES): blocked the nuclear translocation | increase in GAPDH protein levels in early apoptosis (GAPDH [3]): prevent the increase | effect on the GAPDH tetramer (GAPDH [4]): disrupt the tetramer forming dimers | oligomeric state of GAPDH bound to poly-U RNA (GAPDH [4]): converted to a dimer | oligomeric state of GAPDH in the presence of SDS (GAPDH [4]): remains dimeric | oligomeric state of GAPDH in the presence of SDS (GAPDH [4]; listed as DES): convert it to a dimer

C#CCNCC1=Cc2ccccc2Oc2ccccc21 [CGP3466, dibenzo[bf]oxepin-10-ylmethyl-prop-2-ynyl-amine]
binding to GAPDH (GAPDH [2]): bind to GAPDH | proteins bound (GAPDH [2]): tubulin, actin, synapsin and GAPDH | nuclear translocation (relocation) of GAPDH (PC12 cells): prevent the nuclear relocation of GAPDH; also recorded: blocked the nuclear translocation | increase in GAPDH protein levels in early apoptosis (GAPDH [3]): prevent the increase | effect on the GAPDH tetramer (GAPDH [4]): disrupt the tetramer forming dimers | oligomeric state of GAPDH bound to poly-U RNA (GAPDH [4]): converted to a dimer | oligomeric state of GAPDH in the presence of SDS (GAPDH [4]): convert it to a dimer | oligomeric state of GAPDH in the presence of SDS (GAPDH [4]; listed as CGP 3466): remains dimeric | drug binding to GAPDH after pre-treatment with antibody to the channel site (GAPDH [5]): no binding

CC(C)[C@H]1CC[C@@]2(CO2)[C@H]2C(=O)OCC(C(=O)O)=C[C@H]12 [Koningic acid]
GAPDH glycolytic function (GAPDH [6]): inhibits GAPDH glycolytic function | induction of apoptosis (NG108-15 cells): induces apoptosis

CC(=O)N[C@@H](CS)C(=O)O [NAC, N-acetyl cysteine]
increase in GAPDH protein levels in early apoptosis (GAPDH [3]): prevent the increase

NC(=O)c1ccc[n+]([C@@H]2O[C@H](COP(=O)([O-])OP(=O)(O)OC[C@H]3O[C@@H](n4cnc5c(N)ncnc54)[C@H](O)[C@@H]3O)[C@@H](O)[C@H]2O)c1 [NAD^+]
nuclear translocation of GAPDH (fibroblasts): induced the dense translocation of GAPDH to the nucleus | GAPDH glycolytic activity (GAPDH [7]): increases the enzyme's glycolytic activity | release of GAPDH from AU-rich RNA (GAPDH [7]): releases GAPDH from AU-rich RNA

O=C([O-])c1c(Cl)c(Cl)c(Cl)c(Cl)c1-c1c2cc(I)c(=O)c(I)c-2oc2c(I)c([O-])c(I)cc12.[Na+].[Na+] [Rose Bengal]
localization of GAPDH-GFP fusion protein (COS and Hek cells): concentrate in the nucleus of a proportion of the cells
